Assay [1] has as its target T1, Sdh (succinate dehydrogenase; complex II) (Mus musculus, UniProt Q8K2B3). In words: complex II enzyme activity microplate assay, Dixon plot. It is filed as biochemical.
Assay [2] has as its target T1, Sdh (succinate dehydrogenase; complex II). In words: complex II enzyme activity microplate assay, Lineweaver-Burk plot. In kind it is biochemical. To be noted: sodium succinate hexahydrate varied in activity buffer with phospholipid mixture.

T1 sequence (Q8K2B3 43-664): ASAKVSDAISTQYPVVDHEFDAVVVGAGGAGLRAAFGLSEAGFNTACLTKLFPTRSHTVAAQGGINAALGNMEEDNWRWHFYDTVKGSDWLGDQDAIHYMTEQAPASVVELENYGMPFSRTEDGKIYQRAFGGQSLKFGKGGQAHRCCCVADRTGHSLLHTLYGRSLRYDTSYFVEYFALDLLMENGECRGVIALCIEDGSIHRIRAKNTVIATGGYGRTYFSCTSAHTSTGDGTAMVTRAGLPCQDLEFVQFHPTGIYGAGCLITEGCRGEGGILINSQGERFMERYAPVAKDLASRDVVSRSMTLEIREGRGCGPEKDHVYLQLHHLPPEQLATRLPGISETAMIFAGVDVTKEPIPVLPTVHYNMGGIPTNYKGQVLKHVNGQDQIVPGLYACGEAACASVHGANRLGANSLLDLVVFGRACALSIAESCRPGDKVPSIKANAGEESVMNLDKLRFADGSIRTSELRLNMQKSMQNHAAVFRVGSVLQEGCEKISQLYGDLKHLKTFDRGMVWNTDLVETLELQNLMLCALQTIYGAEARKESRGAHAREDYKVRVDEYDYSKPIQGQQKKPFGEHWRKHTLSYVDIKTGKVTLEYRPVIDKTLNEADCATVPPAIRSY
T1 sequence (Q9CQA3 31-282 partner): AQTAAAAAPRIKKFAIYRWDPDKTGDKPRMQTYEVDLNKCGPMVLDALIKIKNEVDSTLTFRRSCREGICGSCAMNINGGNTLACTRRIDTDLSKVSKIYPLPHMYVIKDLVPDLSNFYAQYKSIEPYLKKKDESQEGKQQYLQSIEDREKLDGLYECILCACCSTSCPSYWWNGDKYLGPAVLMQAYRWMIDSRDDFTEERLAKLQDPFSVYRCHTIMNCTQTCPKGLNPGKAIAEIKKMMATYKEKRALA
T1 sequence (Q9CZB0 30-169 partner): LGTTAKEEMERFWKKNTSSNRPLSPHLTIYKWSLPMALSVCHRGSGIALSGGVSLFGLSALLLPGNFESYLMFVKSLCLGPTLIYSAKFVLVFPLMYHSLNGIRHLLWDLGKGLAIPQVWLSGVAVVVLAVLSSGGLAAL
T1 sequence (Q9CXV1 57-159 partner): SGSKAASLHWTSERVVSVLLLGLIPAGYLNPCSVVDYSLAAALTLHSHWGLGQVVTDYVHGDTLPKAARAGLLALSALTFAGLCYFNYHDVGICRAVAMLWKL

As a reminder, the Ki is the dissociation constant of the complex between target and ligand, obtained from inhibition or displacement. A lower Ki goes with a stronger hold on the target. `C=C(CC(=O)O)C(=O)O` [itaconate] displayed a Ki in assay [1] of 220 µM.

The Km is the substrate concentration at which the rate is half of its maximum. As to `O=C(O)CCC(=O)O` [succinate], in assay [2], the Km worked out at 290 ± 800 µM.

The record behind these values is publication PMC5108454 (Cell metabolism, 2016).
